Laboratory results as given in US12263175B2, “Optimised dosage of diaminophenothiazines in populations” (WisTa Laboratories Ltd., priority 2018, dated 2025).

Assay: Treatment-emergent adverse events, three Phase 3 double-blind studies, LMTM pooled safety population
Type: in vivo, human
Excerpt: Three Phase 3, double-blind, controlled studies of LMTM have been completed (one each in subjects with mild and mild to moderate AD and one in subjects with bvFTD). Results of the AD studies have been published (Gauthier et al., 2016; Wilcock et al., 2018).
In these three studies, 1897 subjects received at least one dose of LMTM (Safety Population [Five additional subjects with AD, participating at one site in Study TRx-237-005, received a dose of study drug but were excluded from all analyses due to GCP violations], 1679 subjects with AD and 218 subjects with bvFTD). Of these, 860 subjects received the control (LMTM 8 mg/day, 750 with AD and 110 with bvFTD) and 1037 subjects received at least one dose of LMTM in the higher doses of 150 to 250 mg/day (929 with AD and 108 with bvFTD).
The incidence of the most common TEAEs are summarised by dose in the following Table EX1. This includes TEAEs that occurred at an incidence of ≥2.0% either in subjects randomised to LMTM 8 mg/day or higher doses (150 to 250 mg/day). The subset of TEAEs that were severe in intensity are also included.
The TEAEs are further analysed by using groupings of related MedDRA (Medical Dictionary for Regulatory Activities) preferred terms to better estimate the incidence of potentially treatment related adverse events. The incidence of all groupings for subjects categorised by dose (8 mg/day versus higher doses of 150 to 250 mg/day) is shown in the following Table EX2: […]

[1] = LMTM 8 mg/day (N = 860), Severe Intensity
[2] = subjects treated with LMTM 8 mg/day

CN(C)c1ccc2c(c1)Sc1cc(N(C)C)ccc1N2 [LMTM, leuco-methylthioninium bis(hydromethanesulfonate)]
Grouped TEAE incidence: Behavioral Symptoms (LMTM 8 mg/day (N = 860)): 114 (13.3%) n (%) | Grouped TEAE incidence: Falls and Related Terms (LMTM 8 mg/day (N = 860)): 188 (21.9%) n (%) | Grouped TEAE incidence: Hepatic Function Impairment (LMTM 8 mg/day (N = 860)): 13 (1.5%) n (%) | Grouped TEAE incidence: Hypersensitivity (LMTM 8 mg/day (N = 860)): 42 (4.9%) n (%) | Grouped TEAE incidence: Ischaemic Events, Inclusive of Myocardial Infarction (LMTM 8 mg/day (N = 860)): 20 (2.3%) n (%) | Grouped TEAE incidence: Psychotic Symptoms (LMTM 8 mg/day (N = 860)): 28 (3.3%) n (%) | Grouped TEAE incidence: Renal Function Impairment (LMTM 8 mg/day (N = 860)): 29 (3.4%) n (%) | Grouped TEAE incidence: Renal and Urinary Disorders (Including Infections) (LMTM 8 mg/day (N = 860)): 135 (15.7%) n (%) | Grouped TEAE incidence: Sleep Disorders (LMTM 8 mg/day (N = 860)): 41 (4.8%) n (%) | Grouped TEAE incidence: Targeted Gastrointestinal Events (LMTM 8 mg/day (N = 860)): 183 (21.3%) n (%) | No. (%) of Subjects Reporting at Least One TEAE (LMTM 8 mg/day (N = 860), All): 720 (83.7%) n (%) | TEAE incidence: Abdominal pain (LMTM 8 mg/day (N = 860), All): 16 (1.9%) n (%) | TEAE incidence: Abdominal pain upper (LMTM 8 mg/day (N = 860), All): 10 (1.2%) n (%) | TEAE incidence: Agitation (LMTM 8 mg/day (N = 860), All): 46 (5.3%) n (%) | TEAE incidence: Anaemia (LMTM 8 mg/day (N = 860), All): 19 (2.2%) n (%) | TEAE incidence: Anxiety (LMTM 8 mg/day (N = 860), All): 52 (6.0%) n (%) | TEAE incidence: Arthralgia (LMTM 8 mg/day (N = 860), All): 28 (3.3%) n (%) | TEAE incidence: Atrial fibrillation (LMTM 8 mg/day (N = 860), All): 17 (2.0%) n (%) | TEAE incidence: Back pain (LMTM 8 mg/day (N = 860), All): 31 (3.6%) n (%) | TEAE incidence: Blood creatine phosphokinase increased (LMTM 8 mg/day (N = 860), All): 18 (2.1%) n (%) | TEAE incidence: Blood folate decreased (LMTM 8 mg/day (N = 860), All): 45 (5.2%) n (%) | TEAE incidence: Bronchitis (LMTM 8 mg/day (N = 860), All): 27 (3.1%) n (%) | TEAE incidence: Cerebral microhaemorrhage (LMTM 8 mg/day (N = 860), All): 24 (2.8%) n (%) | TEAE incidence: Confusional state (LMTM 8 mg/day (N = 860), All): 22 (2.6%) n (%) | TEAE incidence: Constipation (LMTM 8 mg/day (N = 860), All): 23 (2.7%) n (%) | TEAE incidence: Contusion (LMTM 8 mg/day (N = 860), All): 24 (2.8%) n (%) | TEAE incidence: Cough (LMTM 8 mg/day (N = 860), All): 37 (4.3%) n (%) | TEAE incidence: Decreased appetite (LMTM 8 mg/day (N = 860), All): 13 (1.5%) n (%) | TEAE incidence: Dehydration (LMTM 8 mg/day (N = 860), All): 17 (2.0%) n (%) | TEAE incidence: Depression (LMTM 8 mg/day (N = 860), All): 41 (4.8%) n (%) | TEAE incidence: Diarrhoea (LMTM 8 mg/day (N = 860), All): 109 (12.7%) n (%) | TEAE incidence: Dizziness (LMTM 8 mg/day (N = 860), All): 49 (5.7%) n (%) | TEAE incidence: Dysuria (LMTM 8 mg/day (N = 860), All): 6 (0.7%) n (%) | TEAE incidence: Fall (LMTM 8 mg/day (N = 860), All): 90 (10.5%) n (%) | TEAE incidence: Fatigue (LMTM 8 mg/day (N = 860), All): 26 (3.0%) n (%) | TEAE incidence: Folate deficiency (LMTM 8 mg/day (N = 860), All): 17 (2.0%) n (%) | TEAE incidence: Haemoglobin decreased (LMTM 8 mg/day (N = 860), All): 6 (0.7%) n (%) | TEAE incidence: Hallucination (LMTM 8 mg/day (N = 860), All): 13 (1.5%) n (%) | TEAE incidence: Headache (LMTM 8 mg/day (N = 860), All): 55 (6.4%) n (%) | TEAE incidence: Hypertension (LMTM 8 mg/day (N = 860), All): 20 (2.3%) n (%) | TEAE incidence: Insomnia (LMTM 8 mg/day (N = 860), All): 29 (3.4%) n (%) | TEAE incidence: Laceration (LMTM 8 mg/day (N = 860), All): 17 (2.0%) n (%) | TEAE incidence: Micturition urgency (LMTM 8 mg/day (N = 860), All): 11 (1.3%) n (%) | TEAE incidence: Nasopharyngitis (LMTM 8 mg/day (N = 860), All): 40 (4.7%) n (%) | TEAE incidence: Nausea (LMTM 8 mg/day (N = 860), All): 39 (4.5%) n (%) | TEAE incidence: Oedema peripheral (LMTM 8 mg/day (N = 860), All): 19 (2.2%) n (%) | TEAE incidence: Pain in extremity (LMTM 8 mg/day (N = 860), All): 19 (2.2%) n (%) | TEAE incidence: Pollakiuria (LMTM 8 mg/day (N = 860), All): 19 (2.2%) n (%) | TEAE incidence: Rash (LMTM 8 mg/day (N = 860), All): 21 (2.4%) n (%) | TEAE incidence: Suicidal ideation (LMTM 8 mg/day (N = 860), All): 27 (3.1%) n (%) | TEAE incidence: Syncope (LMTM 8 mg/day (N = 860), All): 26 (3.0%) n (%) | TEAE incidence: Tremor (LMTM 8 mg/day (N = 860), All): 20 (2.3%) n (%) | TEAE incidence: Upper respiratory tract infection (LMTM 8 mg/day (N = 860), All): 35 (4.1%) n (%) | TEAE incidence: Urinary incontinence (LMTM 8 mg/day (N = 860), All): 34 (4.0%) n (%) | TEAE incidence: Urinary tract infection (LMTM 8 mg/day (N = 860), All): 76 (8.8%) n (%) | TEAE incidence: Vitamin B12 decreased (LMTM 8 mg/day (N = 860), All): 23 (2.7%) n (%) | TEAE incidence: Vomiting (LMTM 8 mg/day (N = 860), All): 20 (2.3%) n (%) | TEAE incidence: Weight decreased (LMTM 8 mg/day (N = 860), All): 18 (2.1%) n (%) | No. (%) of Subjects Reporting at Least One TEAE [1]: 86 (10.0%) n (%) | TEAE incidence: Abdominal pain [1]: 1 (0.1%) n (%) | TEAE incidence: Abdominal pain upper [1]: 1 (0.1%) n (%) | TEAE incidence: Agitation [1]: 1 (0.1%) n (%) | TEAE incidence: Anaemia [1]: 1 (0.1%) n (%) | TEAE incidence: Anxiety [1]: 0 n (%) | TEAE incidence: Arthralgia [1]: 0 n (%) | TEAE incidence: Atrial fibrillation [1]: 3 (0.3%) n (%) | TEAE incidence: Back pain [1]: 1 (0.1%) n (%) | TEAE incidence: Blood creatine phosphokinase increased [1]: 0 n (%) | TEAE incidence: Blood folate decreased [1]: 0 n (%) | TEAE incidence: Bronchitis [1]: 0 n (%) | TEAE incidence: Cerebral microhaemorrhage [1]: 0 n (%) | TEAE incidence: Confusional state [1]: 2 (0.2%) n (%) | TEAE incidence: Constipation [1]: 2 (0.2%) n (%) | TEAE incidence: Contusion [1]: 0 n (%) | TEAE incidence: Cough [1]: 0 n (%) | TEAE incidence: Decreased appetite [1]: 0 n (%) | TEAE incidence: Dehydration [1]: 4 (0.5%) n (%) | TEAE incidence: Depression [1]: 0 n (%) | TEAE incidence: Diarrhoea [1]: 5 (0.6%) n (%) | TEAE incidence: Dizziness [1]: 3 (0.3%) n (%) | TEAE incidence: Dysuria [1]: 0 n (%) | TEAE incidence: Fall [1]: 4 (0.5%) n (%) | TEAE incidence: Fatigue [1]: 0 n (%) | TEAE incidence: Folate deficiency [1]: 0 n (%) | TEAE incidence: Haemoglobin decreased [1]: 0 n (%) | TEAE incidence: Hallucination [1]: 0 n (%) | TEAE incidence: Headache [1]: 1 (0.1%) n (%) | TEAE incidence: Hypertension [1]: 0 n (%) | TEAE incidence: Insomnia [1]: 0 n (%) | TEAE incidence: Laceration [1]: 0 n (%) | TEAE incidence: Micturition urgency [1]: 0 n (%) | TEAE incidence: Nasopharyngitis [1]: 0 n (%) | TEAE incidence: Nausea [1]: 1 (0.1%) n (%) | TEAE incidence: Oedema peripheral [1]: 0 n (%) | TEAE incidence: Pain in extremity [1]: 1 (0.1%) n (%) | TEAE incidence: Pollakiuria [1]: 0 n (%) | TEAE incidence: Rash [1]: 0 n (%) | TEAE incidence: Suicidal ideation [1]: 2 (0.2%) n (%) | TEAE incidence: Syncope [1]: 1 (0.1%) n (%) | TEAE incidence: Tremor [1]: 0 n (%) | TEAE incidence: Upper respiratory tract infection [1]: 0 n (%) | TEAE incidence: Urinary incontinence [1]: 0 n (%) | TEAE incidence: Urinary tract infection [1]: 1 (0.1%) n (%) | TEAE incidence: Vitamin B12 decreased [1]: 0 n (%) | TEAE incidence: Vomiting [1]: 0 n (%) | TEAE incidence: Weight decreased [1]: 0 n (%) | Grouped TEAE incidence: Falls and Related Terms [2]: 22% | Grouped TEAE incidence: GI events [2]: 21% | Grouped TEAE incidence: Renal and Urinary Disorders (Including Infections) [2]: 16% | Grouped TEAE incidence: behavioural symptoms [2]: 13% | Grouped TEAE incidence: terms indicative of anaemia [2]: 13%
